According to patent publication US8512748B2, “Controlled release system and method for manufacturing the same” (Boehringer Ingelheim International GmbH, priority 2006, dated 2013):

Assay: pH-dependent aqueous solubility of the active ingredient
Type: physicochemical

solubility (pH 2): good solubility | aqueous solubility (pH values 5.5-6.8): poor
Compound: O=c1[nH]c2ccccc2n1CCN1CCN(c2cccc(C(F)(F)F)c2)CC1 [active ingredient, 1-[2-(4-(3-trifluoromethyl-phenyl)piperazin-1-yl)ethyl]-2,3-dihydro-1H-benzimidazol-2-one]
